Experimental data published in paper PMC11851430, “Workflow for E3 Ligase Ligand Validation for PROTAC Development” (ACS Chemical Biology, 2025).

Key:
[1] = target: T1, kinase protein levels in MCF-7 cells (Homo sapiens, UniProt A0A0B4J2F0); test: TMT-labeled quantitative proteomics; assay type: cell-based; details: protein PIGBOS1, MCF7, 1 µM
T1 construct: endogenous in cells; host or cells: MCF-7
T1 sequence (A0A0B4J2F0 1-54): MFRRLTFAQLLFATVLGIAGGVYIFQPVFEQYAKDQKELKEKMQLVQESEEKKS

MERTKA = target: T2, MERTKA (Homo sapiens, UniProt Q12866); test: DSF assay; assay type: binding; details: 20 µM compound
T2 construct: purchased in-house DSF panel (SGC-style construct names; the trailing A/B is a construct suffix)
T2 sequence (Q12866 574-864): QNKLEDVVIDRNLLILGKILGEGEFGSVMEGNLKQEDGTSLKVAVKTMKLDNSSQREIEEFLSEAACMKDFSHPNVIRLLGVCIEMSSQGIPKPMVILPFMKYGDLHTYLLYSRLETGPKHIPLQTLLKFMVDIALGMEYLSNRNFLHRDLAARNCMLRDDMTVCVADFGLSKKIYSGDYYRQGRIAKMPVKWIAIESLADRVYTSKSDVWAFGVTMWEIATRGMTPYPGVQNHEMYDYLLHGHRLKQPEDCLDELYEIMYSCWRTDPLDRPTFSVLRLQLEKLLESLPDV

Row | Compound | P.Value (compound/DMSO) ([1]; set1.1) | log2FC (compound/DMSO) ([1]; set1.1) | ΔTm at 20 µM (MERTKA) | further results
1 | Cc1ncsc1-c1ccc(CNC(=O)[C@@H]2C[C@@H](O)CN2C(=O)[C@@H](NC(=O)CCOCCOCCOCCOCCN2CCN(c3ccc(Nc4ncc(Cl)c(Nc5ccccc5C(N)=O)n4)cc3)CC2)C(C)(C)C)cc1 [6-b] | 0.6062 | -0.04609 | – | –
2 | Cc1ncsc1-c1ccc(CNC(=O)[C@@H]2C[C@@H](O)CN2C(=O)[C@@H](NC(=O)CCOCCOCCNC(=O)c2cc(Nc3cc(C4CC4)[nH]n3)nc(Nc3ccc(CC#N)cc3)n2)C(C)(C)C)cc1 [5-a] | 0.533 | 0.05527 | – | –
3 | Cc1ncsc1-c1ccc(CNC(=O)[C@@H]2C[C@@H](O)CN2C(=O)[C@@H](NC(=O)CCOCCOCCOCCN2CCN(c3cc(Nc4cc(C5CC5)[nH]n4)nc(Nc4ccc(CC#N)cc4)n3)CC2)C(C)(C)C)cc1 [4-a] | 0.3761 | 0.1046 | – | –
4 | CCOC(=O)c1cc(Nc2cc(C3CC3)[nH]n2)nc(Nc2ccc(CC#N)cc2)n1 [compound 5] | – | – | 2.06 °C | –
5 | CC(C)(C)OC(=O)NCCCOCCOCCOCCCNC(=O)c1cc(Nc2cc(C3CC3)[nH]n2)nc(Nc2ccc(CC#N)cc2)n1 [5-L] | – | – | 2.15 °C | –
6 | CC(=O)N[C@H](C(=O)N1C[C@H](O)C[C@H]1C(=O)NCc1ccc(-c2scnc2C)cc1OCCOCCOCCOCCNC(=O)c1cc(Nc2cc(C3CC3)[nH]n2)nc(Nc2ccc(CC#N)cc2)n1)C(C)(C)C [5-b] | – | – | – | P.Value (compound/DMSO) ([1]; set2): 0.8938; log2FC (compound/DMSO) ([1]; set2): 0.0131
7 | CC(=O)N[C@H](C(=O)N1C[C@H](O)C[C@H]1C(=O)NCc1ccc(-c2scnc2C)cc1OCCOCCOCCOCCOCCC(=O)N1CCN(c2ccc(Nc3ncc(Cl)c(Nc4ccccc4C(N)=O)n3)cc2)CC1)C(C)(C)C [6-e] | – | – | – | P.Value (compound/DMSO) ([1]; set2): 0.4063; log2FC (compound/DMSO) ([1]; set2): 0.08613
8 | CC(C)(C)OC(=O)NCCOCCOCCOCCOCCC(=O)N1CCN(c2cc(Nc3cc(C4CC4)[nH]n3)nc(Nc3ccc(CC#N)cc3)n2)CC1 [4-L] | – | – | 4.52 °C | –
